For this assay, the system named is HepG2. The experiment in a line: Compound was tested for its inhibition on growth of human hepatoma cells (Hep-G2); No inhibitory effects was observed. The class given is functional, cell-based.

The results in this text go back to ChEMBL document CHEMBL1136040, “Specific accumulation and growth inhibitory effects of hybrid liposomes to hepatoma cells in vitro” (Bioorg Med Chem Lett, 2002).

Each structure is given as a SMILES string.

Consider `CCCCCCCCCCCCCC(=O)OCC(COP(=O)([O-])OCC[N+](C)(C)C)OC(=O)CCCCCCCCCCCNc1ccc([N+](=O)[O-])c2nonc12` (configuration not stated), for which the inhibition result was “No inhibition”.
For `CCCCCCCCCCCCCC(=O)OCC(COP(=O)([O-])OCC[N+](C)(C)C)OC(=O)CCCCCCCCCCCCC` (configuration not stated) the value was “No inhibition”.
